Assay in all cases: cells
Common to all, as to parameters: CellTiter-Glo 2.0 luminescence proliferation/viability assay, single agents, human tumour cell line panel
(In ATP-based viability assays light output follows the ATP content of the culture.)

One experiment has as its system SW1116. The note with it: Homo sapiens, SW 1116, 96 h; single agent; read-out: IC50 SMACm. The method, boiled down:
(§1)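 Human tumour cell lines were seeded into assay plates and held at 37°C with 5% CO2 for twenty-four hours, then exposed in triplicate to rising concentrations of the SMAC mimetic, from 4.5 nM to 10 μM, with DMSO as control. After 96 h, viability was read as CellTiter-Glo2.0 luminescence to derive single-agent IC50 values.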

Another experiment deals with CAR1. The note with it: Homo sapiens, CaR-1, 96 h; single agent; read-out: IC50 SMACm. The method, boiled down: as §1
Another experiment concerns HCC1833. Particulars: 96 h; single agent; read-out: IC50 SMACm. The essentials:
as §1

Another experiment concerns Panc 04.03. Particulars: Homo sapiens, Panc 04.03, 96 h; single agent; read-out: IC50 SMACm. The method, boiled down:
as §1

In a further experiment the test system is RERF-LC-Ad2. Particulars: RERF-LC-Ad2, 96 h; single agent; read-out: IC50 SMACm. The essentials:
as §1

In the next experiment the test system is KM12C. Particulars: Homo sapiens, KM12C, 96 h; single agent; read-out: IC50 SMACm. The method, boiled down:
as §1

A further experiment relates to BxPC-3. Particulars: Homo sapiens, BXPC-3, 96 h; single agent; read-out: IC50 SMACm. The method, boiled down:
as §1

A further experiment deals with SNU1235. Particulars: 96 h; single agent; read-out: IC50 SMACm. The essentials: as §1
The next experiment concerns HPAF-II. Particulars: Homo sapiens, HPAF-II, 96 h; single agent; read-out: IC50 SMACm. The essentials:
as §1

In another experiment the test system is HT-29. The note with it: Homo sapiens, HT-29, 96 h; single agent; read-out: IC50 SMACm. The essentials: as §1
In the next experiment the test system is COR-L105. Particulars: Homo sapiens, COR-L105, 96 h; single agent; read-out: IC50 SMACm. The method, boiled down:
as §1

Another experiment deals with IM-95. Particulars: Homo sapiens, IM95, 96 h; single agent; read-out: IC50 SMACm. The essentials:
as §1

A further experiment relates to HCC95. The note with it: Homo sapiens, HCC95, 96 h; single agent; read-out: IC50 SMACm. The essentials:
as §1

A further experiment deals with SNU-668. Particulars: SNU668, 96 h; single agent; read-out: IC50 SMACm. The method, boiled down:
as §1

Consider `CN[C@@H](C)C(=O)Nc1ccc(-c2c(-c3cccnc3OC)nc3cc(C)ccn23)c(C#Cc2ccc3c(C)nccc3c2)n1` [SMACm, BI 891065], for which the IC50 in the experiment with SW1116 was 4.51 µM; with CAR1, 2100 nM; in the experiment with HCC1833, 102 nM; with Panc 04.03 it was 4.68 µM; in the experiment on RERF-LC-Ad2, 2520 nM; in the experiment on KM12C, 5.22 µM. In addition, the 50% inhibitory concentration (IC50) in the experiment on BxPC-3 worked out at 530 nM; with SNU1235, 2140 nM; in the experiment with HPAF-II, 4.64 µM; in the experiment on HT-29 it was 4.24 µM; in the experiment with COR-L105, 4.47 µM; in the experiment with IM-95, 1240 nM. Besides, the IC50 in the experiment on HCC95 was determined as 6.09 µM; with SNU-668 it was 6.29 µM.

For orientation: IC50 means the midpoint of a concentration-inhibition curve.

Values taken from PMC12490239, “Combining BET inhibition with SMAC mimetics restricts tumor growth and triggers immune surveillance in preclinical cancer models” (Cell Reports Medicine, 2025).
